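Each compound was tested at five concentrations against cells in 96-well plates for 48 hours. GI50 marks 50% less growth.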 Calls of active or inactive are those of the source. Rule as the data show it: active = GI50 up to about 1.1 µM and inactive = higher.
Key:
Assay in all cases: NCI tumour cell line growth inhibition, 48 h
OVCAR-4 = tested on: OVCAR-4
U-251 = tested on: U-251
UO-31 = tested on: UO-31
A549 = tested on: A549
ACHN = tested on: ACHN
NCI-H226 = tested on: NCI-H226
UACC-62 = tested on: UACC-62
COLO 205 = tested on: COLO 205
OVCAR-3 = tested on: OVCAR-3
MDA-MB-231 = tested on: MDA-MB-231
HL-60 = tested on: HL-60
T47D = tested on: T47D
MOLT-4 = tested on: MOLT-4
UACC-257 = tested on: UACC-257
786-0 = tested on: 786-0
PC-3 = tested on: PC-3
SR = tested on: SR
Malme-3M = tested on: Malme-3M
Hs-578T = tested on: Hs-578T

Measured: GI50

COC(=O)c1c(C(=O)OC)c2ccc(-c3ccc(Cl)cc3)nn2c1C(=O)c1ccc([N+](=O)[O-])cc1
inactive: OVCAR-4 42.3 µM | U-251 > 100 µM | UO-31 32.1 µM | A549 > 100 µM | ACHN 43 µM | NCI-H226 > 100 µM | UACC-62 > 100 µM | COLO 205 27.3 µM | OVCAR-3 43.5 µM | MDA-MB-231 > 100 µM | T47D 27.9 µM | MOLT-4 15.3 µM | UACC-257 > 100 µM | 786-0 39.4 µM | PC-3 > 100 µM
active: HL-60 < 0.01 µM

NC1CC=C(COC(=O)C(O)(c2ccccc2)C2CC2)CC1 (configuration not stated)
inactive: U-251 > 100 µM | UO-31 > 100 µM | A549 > 100 µM | ACHN > 100 µM | NCI-H226 > 100 µM | UACC-62 > 100 µM | COLO 205 > 100 µM | SR > 100 µM | OVCAR-3 > 100 µM | Malme-3M > 100 µM | MDA-MB-231 > 100 µM | T47D > 100 µM | MOLT-4 > 100 µM | UACC-257 > 100 µM | 786-0 > 100 µM | PC-3 > 100 µM

C=C1CCC2[C@](C)(CCC[C@]2(C)C(=O)O)[C@@H]1CCc1ccoc1 (some centres not stated)
inactive: OVCAR-4 48.6 µM | UO-31 36.5 µM | A549 34.5 µM | ACHN 41.7 µM | NCI-H226 20.6 µM | UACC-62 35.2 µM | COLO 205 17.4 µM | SR 27 µM | OVCAR-3 24 µM | Malme-3M 32.2 µM | MDA-MB-231 49.2 µM | HL-60 45.8 µM | T47D 57.8 µM | MOLT-4 32.5 µM | UACC-257 29 µM | 786-0 48.6 µM | PC-3 46 µM | Hs-578T 33.2 µM

Cc1c(C)c(S(=O)(=O)N(CCCCN)OCCCN)c(C)c2c1OC(C)(C)CC2
inactive: OVCAR-4 13.8 µM | U-251 21.9 µM | UO-31 19.4 µM | A549 19.2 µM | ACHN 20.8 µM | NCI-H226 13.1 µM | UACC-62 20.7 µM | COLO 205 31.2 µM | SR 42.7 µM | OVCAR-3 13.3 µM | MDA-MB-231 21.7 µM | T47D 23.7 µM | MOLT-4 19.6 µM | UACC-257 22.2 µM | 786-0 13.7 µM | PC-3 5.47 µM | Hs-578T 13.2 µM
active: HL-60 1 µM

O=C(CC(C(=O)c1ccsc1)c1ccccc1)c1ccccc1 (configuration not stated)
active: HL-60 0.484 µM
inactive: OVCAR-4 6.5 µM | U-251 95.9 µM | UO-31 > 100 µM | A549 28 µM | ACHN > 100 µM | NCI-H226 74.1 µM | UACC-62 71.1 µM | COLO 205 > 100 µM | SR > 100 µM | OVCAR-3 > 100 µM | T47D 20.2 µM | MOLT-4 > 100 µM | UACC-257 > 100 µM | 786-0 > 100 µM | Hs-578T > 100 µM

CC1(C)CC[C@]2(C(=O)O)CC[C@]3(C)C(=CCC4=C5C[C@H](O)[C@H](O)[C@@](C)(CO)[C@@]5(C)CC[C@]43C)[C@@H]2C1
inactive: OVCAR-4 36.7 µM | U-251 48.2 µM | UO-31 47.1 µM | A549 38.5 µM | ACHN > 100 µM | UACC-62 46 µM | COLO 205 15.2 µM | SR > 100 µM | OVCAR-3 > 100 µM | Malme-3M 69.2 µM | MDA-MB-231 > 100 µM | HL-60 6.05 µM | T47D 28.4 µM | MOLT-4 47.3 µM | UACC-257 71 µM | 786-0 31.8 µM | PC-3 59.3 µM | Hs-578T 39.9 µM
